For one assay, the target named is T1, EGFR (Homo sapiens, UniProt P00533).
T1 construct: purchased
The experiment in a line: KdELECT binding assay, EGFR. The essentials: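 Competition binding: DNA- or T7 phage-tagged EGFR was incubated 1 h at room temperature with immobilized ligand beads and an 11-point 3-fold compound series (0.9% DMSO final). Bead-bound kinase was eluted and quantified by qPCR to derive Kd.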

Assay [1] deals with T2, EGFR T790M, L858R (amino acids 669-1011 Accession Number NP_005219.2) (Homo sapiens, UniProt P00533, L858R/T790M).
T2 construct: purchased Eurofins Discovery; host or cells: mammalian cells (HEK-293)
The experiment in a line: KdELECT binding assay (Eurofins Discovery), EGFR T790M, L858R. Conditions: read-out: EGFR DM Kd. The essentials:
(§1)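 Competition binding: WT kinase as T7 phage fusion from E. coli, T790M/L858R produced in HEK-293 and DNA-tagged, incubated 1 h at room temperature with immobilized ligand beads and compound (11-point 3-fold series, 0.9% DMSO). Bead-bound kinase eluted and quantified by qPCR to derive Kd.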

For assay [2], the target named is T3, EGFR WT (amino acids 669-1011, Accession Number NP_005219.2) (Homo sapiens, UniProt P00533).
T3 construct: purchased Eurofins Discovery; host or cells: bacteria (E. coli, BL21-derived, T7 phage)
The assay is described as follows: KdELECT binding assay (Eurofins Discovery), EGFR WT. The essentials: as §1

Assay [3] has as its target T4, full-length CDK9 (amino acids 1-372; Accession Number NP_001252.1) (Homo sapiens, UniProt P50750).
T4 construct: full-length CDK9 (amino acids 1-372); purchased; host or cells: bacteria (E. coli, BL21-derived, T7 phage)
The assay is described as follows: KdELECT binding assay, CDK9. The method, then:
Exemplary compounds were tested for ability to bind to full-length CDK9 (amino acids 1-372; Accession Number NP_001252.1) expressed from bacteria. Compounds were tested using a KdELECT assay.
Kinase-tagged T7 phage strains were prepared in an E. coli host derived from the BL21 strain. E. coli were grown to log-phase and infected with T7 phage and incubated with shaking at 32° C. until lysis. The lysates were centrifuged and filtered to remove cell debris. The remaining kinases were produced in HEK-293 cells and subsequently tagged with DNA for qPCR detection. Streptavidin-coated magnetic beads were treated with biotinylated small molecule ligands for 30 minutes at room temperature to generate affinity resins for kinase assays. The liganded beads were blocked with excess biotin and washed with blocking buffer (SeaBlock (Pierce), 1% BSA, 0.05% Tween 20, 1 mM DTT) to remove unbound ligand and to reduce non-specific binding. Binding reactions were assembled by combining kinases, liganded affinity beads, and test compounds in 1× binding buffer (20% SeaBlock, 0.17×PBS, 0.05% Tween 20, 6 mM DTT). Test compounds were prepared as 111× stocks in 100% DMSO. Kd values were determined using an 11-point 3-fold compound dilution series with three DMSO control points. All compounds for Kd measurements are distributed by acoustic transfer (non-contact dispensing) in 100% DMSO. The compounds were then diluted directly into the assays such that the final concentration of DMSO was 0.9%. All reactions performed in polypropylene 384-well plate. Each was a final volume of 0.02 mL. The assay plates were incubated at room temperature with shaking for 1 hour and the affinity beads were washed with wash buffer (1×PBS, 0.05% Tween 20). The beads were then re-suspended in elution buffer (1×PBS, 0.05% Tween 20, 0.5 μM nonbiotinylated affinity ligand) and incubated at room temperature with shaking for 30 minutes. The kinase concentration in the eluates was measured by qPCR.

Another assay deals with HEK293 cells. The experiment in a line: Cellular growth inhibition assay (CellTiter-Glo), HEK293 cells. It counts as cell-based. Conditions: Homo sapiens, 72 h, three days compound treatment, CellTiter-Glo 2.0, read-out: CTG HEK293 GI50. The essentials:
(§2)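 GI50 derived by four-parameter regression of luminescence (CellTiter-Glo 2.0) at Day 0 and Day 3, normalized to DMSO wells. Cells (HeLa, HEK293; 500/well, DMEM plus 10% FBS) were dosed with compound dilutions 24 h post-seeding and exposed for three days at 37 °C.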
On the technique in general: In ATP-based viability assays light output follows the ATP content of the culture.

The subject of the next assay is HeLa cells. The assay is described as follows: Cellular growth inhibition assay (CellTiter-Glo), HeLa cells. Type of assay: cell-based. Conditions: Homo sapiens, 72 h, three days compound treatment, CellTiter-Glo 2.0, read-out: CTG HELA GI50. An outline of the steps:
as §2

The target of another assay is T5, KRAS G12C (Homo sapiens, UniProt P01116, G12C).
T5 construct: Kras (aa 2-169), GST; purchased Reaction Biology Corporation (RBC)
The assay is described as follows: KRAS G12C nucleotide exchange assay (SOS1 mediated, HTRF). It counts as biochemical. The conditions noted are these: 1 hr pre-incubation at RT, read-out: IC50 (inhibition of KRas G12C). The essentials: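 HTRF nucleotide exchange using KRAS G12C mixed with anti-GST Tb antibody and pre-incubated with compound for 1 h at RT. Exchange was started with SOS1 plus labelled GTP. Compounds ran as 10-point, 3-fold dilutions from 10 μM, with no-SOS1 or top concentration as blank and IC50 from a variable-slope sigmoidal fit.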
On the technique in general: TR-FRET usually uses a lanthanide donor and a delayed reading to cut background.

pIC50, pKd: −log10 of the molar value. A value given as a limit tells only on which side of the number the result lay.

T5 sequence (P01116 2-169 isoform P01116-2 G12C): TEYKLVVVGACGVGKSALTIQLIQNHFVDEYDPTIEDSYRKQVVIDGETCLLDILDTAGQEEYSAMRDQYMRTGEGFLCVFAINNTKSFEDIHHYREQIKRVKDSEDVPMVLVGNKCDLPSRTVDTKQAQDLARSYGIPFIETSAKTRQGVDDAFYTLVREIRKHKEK
T1 sequence (P00533 25-1210): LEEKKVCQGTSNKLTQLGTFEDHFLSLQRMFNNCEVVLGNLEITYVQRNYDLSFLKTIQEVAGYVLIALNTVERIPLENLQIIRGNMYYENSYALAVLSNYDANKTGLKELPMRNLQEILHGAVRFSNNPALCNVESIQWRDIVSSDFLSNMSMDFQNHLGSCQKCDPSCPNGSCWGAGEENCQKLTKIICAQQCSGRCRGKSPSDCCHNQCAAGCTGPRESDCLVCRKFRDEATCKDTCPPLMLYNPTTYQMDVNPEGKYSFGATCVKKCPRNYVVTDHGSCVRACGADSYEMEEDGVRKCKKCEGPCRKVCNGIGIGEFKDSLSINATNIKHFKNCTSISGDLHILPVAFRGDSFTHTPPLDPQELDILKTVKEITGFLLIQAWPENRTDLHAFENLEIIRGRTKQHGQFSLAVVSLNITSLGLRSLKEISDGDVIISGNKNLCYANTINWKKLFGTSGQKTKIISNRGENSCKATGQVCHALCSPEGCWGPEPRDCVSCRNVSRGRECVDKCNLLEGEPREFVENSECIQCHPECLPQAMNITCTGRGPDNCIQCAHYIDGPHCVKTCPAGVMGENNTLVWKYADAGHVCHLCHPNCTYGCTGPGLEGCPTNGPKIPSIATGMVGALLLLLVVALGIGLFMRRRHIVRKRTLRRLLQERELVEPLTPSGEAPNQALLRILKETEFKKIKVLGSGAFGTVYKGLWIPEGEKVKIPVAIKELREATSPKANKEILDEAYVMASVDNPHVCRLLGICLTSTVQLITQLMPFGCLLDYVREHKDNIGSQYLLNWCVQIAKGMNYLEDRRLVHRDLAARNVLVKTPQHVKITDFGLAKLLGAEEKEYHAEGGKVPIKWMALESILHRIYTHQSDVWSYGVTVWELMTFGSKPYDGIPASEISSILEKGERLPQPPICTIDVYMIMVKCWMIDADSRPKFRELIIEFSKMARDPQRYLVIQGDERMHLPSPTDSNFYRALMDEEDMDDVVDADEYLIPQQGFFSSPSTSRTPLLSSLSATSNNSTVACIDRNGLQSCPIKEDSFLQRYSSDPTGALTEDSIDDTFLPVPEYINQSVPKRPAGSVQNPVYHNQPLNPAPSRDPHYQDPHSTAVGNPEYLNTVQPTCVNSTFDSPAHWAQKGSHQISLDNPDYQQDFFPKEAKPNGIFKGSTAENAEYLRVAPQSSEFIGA
T3 sequence (P00533 669-1011): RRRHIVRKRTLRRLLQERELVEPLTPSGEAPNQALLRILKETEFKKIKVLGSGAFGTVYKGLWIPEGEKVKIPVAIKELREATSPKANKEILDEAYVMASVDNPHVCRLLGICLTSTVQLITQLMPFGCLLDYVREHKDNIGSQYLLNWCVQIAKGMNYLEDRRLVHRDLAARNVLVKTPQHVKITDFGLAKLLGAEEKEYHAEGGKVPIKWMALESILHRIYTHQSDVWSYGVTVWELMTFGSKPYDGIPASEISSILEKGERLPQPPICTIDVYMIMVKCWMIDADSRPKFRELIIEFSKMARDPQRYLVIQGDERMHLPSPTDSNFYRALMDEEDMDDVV
T2 sequence (P00533 669-1011 T790M/L858R): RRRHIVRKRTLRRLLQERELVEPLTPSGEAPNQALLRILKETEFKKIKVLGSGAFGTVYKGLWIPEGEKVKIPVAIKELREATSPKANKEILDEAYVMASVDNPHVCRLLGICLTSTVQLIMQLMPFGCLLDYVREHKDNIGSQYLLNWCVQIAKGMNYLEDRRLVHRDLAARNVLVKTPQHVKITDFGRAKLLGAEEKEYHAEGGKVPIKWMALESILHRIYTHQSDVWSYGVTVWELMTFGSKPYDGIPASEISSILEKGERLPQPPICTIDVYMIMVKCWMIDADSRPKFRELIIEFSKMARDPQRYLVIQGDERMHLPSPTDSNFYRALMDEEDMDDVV
T4 sequence (P50750 whole entry, the tested form may be a part): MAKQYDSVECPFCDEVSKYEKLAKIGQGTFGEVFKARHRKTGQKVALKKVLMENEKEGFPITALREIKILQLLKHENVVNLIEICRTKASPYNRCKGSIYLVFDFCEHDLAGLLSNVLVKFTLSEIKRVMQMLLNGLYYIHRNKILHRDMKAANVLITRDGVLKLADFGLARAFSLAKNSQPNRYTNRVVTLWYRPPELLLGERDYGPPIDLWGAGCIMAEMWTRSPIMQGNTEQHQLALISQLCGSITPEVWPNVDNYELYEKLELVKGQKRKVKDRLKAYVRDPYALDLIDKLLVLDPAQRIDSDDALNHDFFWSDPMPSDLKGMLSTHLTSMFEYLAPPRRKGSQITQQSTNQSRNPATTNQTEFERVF

As for `C=CC(=O)Nc1cc(Nc2nccc(-c3cn(C)c4ccccc34)n2)c(OC)cc1N(C)CCN(C)CCOCCOCCNS(=O)(=O)c1ccc(Nc2ncc(Br)c(Nc3cccc(F)c3C(N)=O)n2)cc1` [Compound I-33, 2-[[5-bromo-2-[4-[2-[2-[2-[2-[5-methoxy-N-methyl-4-[[4-(1-methylindol-3-yl)pyrimidin-2-yl]amino]-2-(prop-2-enoylamino)anilino]ethyl-methyl-amino]ethoxy]ethoxy]ethyl-sulfamoyl]anilino]pyrimidin-4-yl]amino]-6-fluoro-benzamide], the pKd at EGFR is over 7.30; in assay [1], over 7.30; in assay [2], 6.30 to 7.30; in assay [3], 5.60 to 6.30.
With `CCc1cnn2c(NCc3ccc(OCCOCCOCCOCCOCCOC/C=C/C(=O)N4CCN(c5nc(OC[C@@H]6CCCN6C)nc6c5CCN(c5cccc7cccc(Cl)c57)C6)C[C@@H]4CC#N)nc3)cc(N3CCCCC3CCO)nc12` (stereo partly drawn) [Compound I-86, 2-[(2S)-4-[7-(8-chloro-1-naphthyl)-2-[[(2S)-1-methylpyrrolidin-2-yl]methoxy]-6,8-dihydro-5H-pyrido[3,4-d]pyrimidin-4-yl]-1-[(E)-4-[2-[2-[2-[2-[2-[[5-[[[3-ethyl-5-[2-(2-hydroxyethyl)-1-piperidyl]pyrazolo[1,5-a]pyrimidin-7-yl]amino]methyl]-2-pyridyl]oxy]ethoxy]ethoxy]ethoxy]ethoxy]ethoxy]but-2-enoyl]piperazin-2-yl]acetonitrile], the GI50 in the assay on HEK293 cells was 500 to 1500 nM; with HeLa cells, under 500 nM. Also, the pIC50 at KRAS G12C was 6.00 to 7.00. The same molecule had a negative-log Kd (pKd) in assay [3] of over 7.30.
On to `CCc1cnn2c(NCc3ccc(OCCOCCOCCOC4CCN(C/C=C/C(=O)N5CCN(c6nc(OC[C@@H]7CCCN7C)nc7c6CCN(c6cccc8cccc(Cl)c68)C7)C[C@@H]5CC#N)CC4)nc3)cc(N3CCCC[C@H]3CCO)nc12` [Compound I-90, 2-((S)-4-(7-(8-chloronaphthalen-1-yl)-2-(((S)-1-methylpyrrolidin-2-yl)methoxy)-5,6,7,8-tetrahydropyrido [3,4-d]pyrimidin-4-yl)-1-((E)-4-(4-(2-(2-(2-((5-(((3-ethyl-5-((S)-2-(2-hydroxyethyl)piperidin-1-yl)pyrazolo[1,5-a]pyrimidin-7-yl)amino)methyl)pyridin-2-yl)oxy)ethoxy)ethoxy)ethoxy)piperidin-1-yl)but-2-enoyl)piperazin-2-yl)acetonitrile], for which the 50% growth inhibitory concentration (GI50) in the assay with HEK293 cells and in the assay on HeLa cells was under 500 nM each time. Further, the pIC50 on KRAS G12C is over 7.00. Moreover, the pKd in assay [3] is over 7.30.
For the molecule `CCc1cnn2c(NCc3ccc(OCCOCCOCCOCCOCCN(C)C/C=C/C(=O)N4CCN(c5nc(OC[C@@H]6CCCN6C)nc6c5CCN(c5cccc7cccc(Cl)c57)C6)C[C@@H]4CC#N)nc3)cc(N3CCCC[C@H]3CCO)nc12` [Compound I-92, 2-((S)-4-(7-(8-chloronaphthalen-1-yl)-2-(((S)-1-methylpyrrolidin-2-yl)methoxy)-5,6,7,8-tetrahydropyrido [3,4-d]pyrimidin-4-yl)-1-((E)-1-((5-(((3-ethyl-5-((S)-2-(2-hydroxyethyl)piperidin-1-yl)pyrazolo[1,5-a]pyrimidin-7-yl)amino)methyl)pyridin-2-yl)oxy)-15-methyl-3,6,9,12-tetraoxa-15-azanonadec-17-en-19-oyl)piperazin-2-yl)acetonitrile], the GI50 in the assay on HEK293 cells was 500 to 1500 nM; with HeLa cells, under 500 nM. Further, at KRAS G12C, the negative logarithm of the IC50 (pIC50) is over 7.00. The same molecule had a pKd in assay [3] of under 5.60.
`C=CC(=O)Nc1cc(Nc2nccc(-c3cn(C)c4ccccc34)n2)c(OC)cc1N(C)CCN(C)CCOCCOCCOCCOCCOc1ccc(CNc2cc(N3CCCC[C@H]3CCO)nc3c(CC)cnn23)cn1` [Compound I-132]: the concentration for 50% growth inhibition (GI50) in the assay on HEK293 cells and in the assay with HeLa cells was under 500 nM each time. Moreover, the pKd on EGFR is 6.30 to 7.30; in assay [1], over 7.30; in assay [2], 6.30 to 7.30; in assay [3], over 7.30.
Regarding `C=CC(=O)N[C@@H]1CN(c2nc(Nc3cn(CCOCCOCCOCCOCCNS(=O)(=O)c4ccc(Nc5ncc(Br)c(Nc6cccc(F)c6C(N)=O)n5)cc4)nc3OC)c3ncn(C)c3n2)C[C@H]1F` [Compound I-138, 2-[[5-bromo-2-[4-[2-[2-[2-[2-[2-[4-[[2-[(3R,4R)-3-fluoro-4-(prop-2-enoylamino)pyrrolidin-1-yl]-9-methyl-purin-6-yl]amino]-3-methoxy-pyrazol-1-yl]ethoxy]ethoxy]ethoxy]ethoxy]ethylsulfamoyl]anilino]pyrimidin-4-yl]amino]-6-fluoro-benzamide], the GI50 with HEK293 cells and with HeLa cells was over 5000 nM in each case. The pKd at EGFR was over 7.30; in assay [1], over 7.30; in assay [2], over 7.30; in assay [3], 5.60 to 6.30.
As to `C=CC(=O)N[C@@H]1CN(c2nc(Nc3cn(CCOCCOCCOCCOCCOCCOCCNS(=O)(=O)c4ccc(Nc5ncc(Br)c(Nc6cccc(F)c6C(N)=O)n5)cc4)nc3OC)c3ncn(C)c3n2)C[C@H]1F` [Compound I-143, 2-[[5-bromo-2-[4-[2-[2-[2-[2-[2-[2-[2-[4-[[2-[(3R,4R)-3-fluoro-4-(prop-2-enoylamino)pyrrolidin-1-yl]-9-methyl-purin-6-yl]amino]-3-methoxy-pyrazol-1-yl]ethoxy]ethoxy]ethoxy]ethoxy]ethoxy]ethoxy]ethylsulfamoyl]anilino]pyrimidin-4-yl]amino]-6-fluoro-benzamide], the concentration for 50% growth inhibition (GI50) with HEK293 cells and in the assay on HeLa cells was over 5000 nM in each case. The negative-log Kd (pKd) at EGFR is over 7.30; in assay [1], over 7.30; in assay [2] it was over 7.30; in assay [3], 5.60 to 6.30.

What is called pKd is the negative decadic logarithm of the Kd, by convention in mol/L. By GI50 is commonly meant the concentration at which growth is held to half of that of the control. The term pIC50 denotes the IC50 on a negative log10 scale, so that one unit is a factor of ten.

The values above are taken from US20250032623A1, “HETEROBIFUNCTIONAL COMPOUNDS AND THEIR USE IN TREATING DISEASE” (HALDA THERAPEUTICS OPCO, INC., priority 2021, published 2025).
